# Measurements: ChEMBL document CHEMBL1154267, “Imidazo[1,5-a][1,2,4]-triazolo[1,5-d][1,4]benzodiazepines as potent and highly selective GABAA alpha5 inverse agonists with potential for the treatment of cognitive dysfunction” (Bioorg Med Chem Lett, 2009)
# Target: T1, GABA-A receptor; alpha-5/beta-3/gamma-2 (Homo sapiens, UniProt P18507+P28472+P31644)
# T1 sequence (P18507 whole entry): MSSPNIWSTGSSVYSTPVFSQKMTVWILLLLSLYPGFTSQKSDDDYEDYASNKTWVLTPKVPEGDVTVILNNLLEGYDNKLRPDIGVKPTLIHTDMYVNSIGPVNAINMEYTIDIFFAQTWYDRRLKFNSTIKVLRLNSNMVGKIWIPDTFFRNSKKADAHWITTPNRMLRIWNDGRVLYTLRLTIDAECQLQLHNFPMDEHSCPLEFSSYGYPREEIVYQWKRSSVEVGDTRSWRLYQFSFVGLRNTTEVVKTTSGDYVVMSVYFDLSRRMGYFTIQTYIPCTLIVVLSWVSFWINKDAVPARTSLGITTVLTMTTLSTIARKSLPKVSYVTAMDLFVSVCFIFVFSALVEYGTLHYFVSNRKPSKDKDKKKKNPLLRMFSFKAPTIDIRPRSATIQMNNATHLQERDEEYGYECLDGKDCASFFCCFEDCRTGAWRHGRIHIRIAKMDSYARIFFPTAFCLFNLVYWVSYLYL
# T1 sequence (P28472 whole entry): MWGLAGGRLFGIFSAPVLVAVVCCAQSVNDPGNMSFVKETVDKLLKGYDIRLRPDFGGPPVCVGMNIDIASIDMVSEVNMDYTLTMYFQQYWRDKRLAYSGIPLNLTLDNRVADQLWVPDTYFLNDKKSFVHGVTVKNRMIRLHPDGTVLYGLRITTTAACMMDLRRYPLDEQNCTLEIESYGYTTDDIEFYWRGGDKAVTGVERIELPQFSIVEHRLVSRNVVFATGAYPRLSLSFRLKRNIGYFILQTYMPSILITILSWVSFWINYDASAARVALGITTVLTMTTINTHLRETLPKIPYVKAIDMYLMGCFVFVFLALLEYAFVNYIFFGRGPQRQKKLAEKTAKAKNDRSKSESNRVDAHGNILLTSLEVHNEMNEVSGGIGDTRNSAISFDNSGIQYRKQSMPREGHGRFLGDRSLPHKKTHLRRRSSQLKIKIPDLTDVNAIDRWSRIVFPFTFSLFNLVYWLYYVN
# T1 sequence (P31644 whole entry): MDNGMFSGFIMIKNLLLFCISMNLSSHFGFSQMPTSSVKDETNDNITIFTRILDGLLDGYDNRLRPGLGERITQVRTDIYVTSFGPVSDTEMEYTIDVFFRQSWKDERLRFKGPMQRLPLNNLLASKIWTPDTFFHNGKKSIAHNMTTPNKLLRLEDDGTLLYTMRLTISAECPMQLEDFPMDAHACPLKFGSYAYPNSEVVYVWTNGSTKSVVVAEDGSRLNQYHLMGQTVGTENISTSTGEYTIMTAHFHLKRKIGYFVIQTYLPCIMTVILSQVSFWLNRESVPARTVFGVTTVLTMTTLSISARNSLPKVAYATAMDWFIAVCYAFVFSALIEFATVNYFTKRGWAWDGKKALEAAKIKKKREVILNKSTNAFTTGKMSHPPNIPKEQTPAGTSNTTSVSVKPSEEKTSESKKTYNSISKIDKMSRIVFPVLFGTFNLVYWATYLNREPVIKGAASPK
# Experiment: Displacement of [3H]flumazenil from GABAA alpha-5-beta-3-gamma-2 receptor
# Format: protein-complex assay
# Conditions: not given
row,Compound,Ki [nM]
1,Cc1noc(Cc2nc3n(n2)Cc2c(C)ncn2-c2ccc(Br)cc2-3)n1,0.9
2,Cc1ccc2c(c1)-c1nc(Cc3cc(C)no3)nn1Cc1c(C)ncn1-2,0.8
3,Cc1cc(Cc2nc3n(n2)Cc2c(C)ncn2-c2ccc(OC(F)(F)F)cc2-3)on1,11
4,Cc1nc2n(n1)Cc1c(C)ncn1-c1ccc(Br)cc1-2,20
5,COc1ccc2c(c1)-c1nc(Cc3cc(C)no3)nn1Cc1c(C)ncn1-2,2.2
6,Cc1cc(Cc2nc3n(n2)Cc2c(C)ncn2-c2ccc(Br)cc2-3)on1,0.6
7,Cc1ncn2c1Cn1ncnc1-c1cc(Br)ccc1-2,6

# Target: T2, GABA-A receptor; alpha-1/beta-3/gamma-2 (Homo sapiens, UniProt P14867+P18507+P28472)
# T2 sequence (P14867 whole entry): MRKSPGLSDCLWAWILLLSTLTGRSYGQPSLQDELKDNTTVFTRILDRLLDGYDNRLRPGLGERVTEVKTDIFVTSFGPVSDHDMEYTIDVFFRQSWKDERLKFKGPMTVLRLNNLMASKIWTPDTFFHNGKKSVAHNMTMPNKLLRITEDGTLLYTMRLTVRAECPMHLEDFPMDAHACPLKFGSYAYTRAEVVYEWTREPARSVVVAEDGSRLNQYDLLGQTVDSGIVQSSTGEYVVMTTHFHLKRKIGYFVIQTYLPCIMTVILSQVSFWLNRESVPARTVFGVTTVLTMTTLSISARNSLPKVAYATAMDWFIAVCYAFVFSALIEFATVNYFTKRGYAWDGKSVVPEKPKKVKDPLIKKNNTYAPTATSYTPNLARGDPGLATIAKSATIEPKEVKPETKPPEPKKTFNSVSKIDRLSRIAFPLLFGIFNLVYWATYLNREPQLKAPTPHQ
# T2 sequence (P18507 whole entry): T1 sequence (P18507 whole entry)
# T2 sequence (P28472 whole entry): T1 sequence (P28472 whole entry)
# Experiment: Displacement of [3H]flumazenil from GABAA alpha-1-beta-3-gamma-2 receptor
# Format: protein-complex assay
# Conditions: not given
row,Compound,Ki [nM]
1,Cc1noc(Cc2nc3n(n2)Cc2c(C)ncn2-c2ccc(Br)cc2-3)n1,469
2,Cc1nc2n(n1)Cc1c(C)ncn1-c1ccc(Br)cc1-2,1420
3,Cc1cc(Cc2nc3n(n2)Cc2c(C)ncn2-c2ccc(Br)cc2-3)on1,188
4,Cc1ncn2c1Cn1ncnc1-c1cc(Br)ccc1-2,136

# Target: T3, GABA-A receptor; alpha-2/beta-3/gamma-2 (Homo sapiens, UniProt P18507+P28472+P47869)
# T3 sequence (P18507 whole entry): T1 sequence (P18507 whole entry)
# T3 sequence (P28472 whole entry): T1 sequence (P28472 whole entry)
# T3 sequence (P47869 whole entry): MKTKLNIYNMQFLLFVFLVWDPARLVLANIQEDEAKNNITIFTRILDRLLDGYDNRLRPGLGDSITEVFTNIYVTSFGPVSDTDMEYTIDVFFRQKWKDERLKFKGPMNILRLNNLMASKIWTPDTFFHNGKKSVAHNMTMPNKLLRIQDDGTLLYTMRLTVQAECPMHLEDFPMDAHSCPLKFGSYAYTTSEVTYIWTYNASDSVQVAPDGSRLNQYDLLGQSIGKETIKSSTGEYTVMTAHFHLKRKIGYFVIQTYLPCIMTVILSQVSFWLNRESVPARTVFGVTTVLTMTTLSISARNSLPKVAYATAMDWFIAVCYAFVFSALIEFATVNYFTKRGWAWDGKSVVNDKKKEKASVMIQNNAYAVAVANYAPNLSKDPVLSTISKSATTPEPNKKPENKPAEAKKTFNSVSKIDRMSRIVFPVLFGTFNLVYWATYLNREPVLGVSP
# Experiment: Displacement of [3H]flumazenil from GABAA alpha-2-beta-3-gamma-2 receptor
# Format: protein-complex assay
# Conditions: not given
row,Compound,Ki [nM]
1,Cc1noc(Cc2nc3n(n2)Cc2c(C)ncn2-c2ccc(Br)cc2-3)n1,317
2,Cc1nc2n(n1)Cc1c(C)ncn1-c1ccc(Br)cc1-2,3160
3,Cc1cc(Cc2nc3n(n2)Cc2c(C)ncn2-c2ccc(Br)cc2-3)on1,105
4,Cc1ncn2c1Cn1ncnc1-c1cc(Br)ccc1-2,186

# Target: T4, GABA-A receptor; alpha-3/beta-3/gamma-2 (Homo sapiens, UniProt P18507+P28472+P34903)
# T4 sequence (P18507 whole entry): T1 sequence (P18507 whole entry)
# T4 sequence (P28472 whole entry): T1 sequence (P28472 whole entry)
# T4 sequence (P34903 whole entry): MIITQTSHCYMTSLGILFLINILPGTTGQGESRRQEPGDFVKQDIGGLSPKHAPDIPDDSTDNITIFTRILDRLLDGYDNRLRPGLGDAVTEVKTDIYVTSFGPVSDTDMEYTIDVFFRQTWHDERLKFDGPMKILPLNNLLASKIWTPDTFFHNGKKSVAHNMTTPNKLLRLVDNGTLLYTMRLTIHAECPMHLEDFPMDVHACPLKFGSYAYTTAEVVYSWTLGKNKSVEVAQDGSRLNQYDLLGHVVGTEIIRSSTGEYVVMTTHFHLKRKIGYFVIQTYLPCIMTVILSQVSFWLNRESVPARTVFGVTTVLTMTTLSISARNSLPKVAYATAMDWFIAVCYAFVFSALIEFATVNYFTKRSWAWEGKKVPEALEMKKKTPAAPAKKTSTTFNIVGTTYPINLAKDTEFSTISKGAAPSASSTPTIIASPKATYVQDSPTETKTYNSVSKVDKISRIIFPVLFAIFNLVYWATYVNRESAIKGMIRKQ
# Experiment: Displacement of [3H]flumazenil from GABAA alpha-3-beta-3-gamma-2 receptor
# Format: protein-complex assay
# Conditions: not given
row,Compound,Ki [nM]
1,Cc1noc(Cc2nc3n(n2)Cc2c(C)ncn2-c2ccc(Br)cc2-3)n1,277
2,Cc1nc2n(n1)Cc1c(C)ncn1-c1ccc(Br)cc1-2,1620
3,Cc1cc(Cc2nc3n(n2)Cc2c(C)ncn2-c2ccc(Br)cc2-3)on1,73
4,Cc1ncn2c1Cn1ncnc1-c1cc(Br)ccc1-2,132

# Target: GABA-A receptor; alpha-5/beta-3/gamma-2 (Homo sapiens) (UniProt P18507+P28472+P31644)
# Experiment: Inverse agonist activity at GABAA alpha-5-beta-3-gamma-2 receptor assessed as modulation of GABA-induced chloride ion flux by electrophysiology assay relative to GABA
# Format: functional
# Conditions: not given
row,Compound,Efficacy [%]
1,Cc1noc(Cc2nc3n(n2)Cc2c(C)ncn2-c2ccc(Br)cc2-3)n1,-18
2,Cc1ccc2c(c1)-c1nc(Cc3cc(C)no3)nn1Cc1c(C)ncn1-2,-16
3,Cc1cc(Cc2nc3n(n2)Cc2c(C)ncn2-c2ccc(OC(F)(F)F)cc2-3)on1,-20
4,Cc1nc2n(n1)Cc1c(C)ncn1-c1ccc(Br)cc1-2,-17
5,COc1ccc2c(c1)-c1nc(Cc3cc(C)no3)nn1Cc1c(C)ncn1-2,-13
6,Cc1cc(Cc2nc3n(n2)Cc2c(C)ncn2-c2ccc(Br)cc2-3)on1,-27
7,Cc1ncn2c1Cn1ncnc1-c1cc(Br)ccc1-2,-42

# Target: GABA-A receptor; alpha-1/beta-3/gamma-2 (Homo sapiens) (UniProt P14867+P18507+P28472)
# Experiment: Inverse agonist activity at GABAA alpha-1-beta-3-gamma-2 receptor assessed as modulation of GABA-induced chloride ion flux by electrophysiology assay relative to GABA
# Format: functional
# Conditions: not given
row,Compound,Efficacy [%]
1,Cc1ncn2c1Cn1ncnc1-c1cc(Br)ccc1-2,-16

# System: not listed separately
# Experiment: Selectivity ratio of Ki for GABAA alpha-1-beta-3-gamma-2 receptor to Ki for GABAA alpha-5-beta-3-gamma-2 receptor
# Conditions: not given
row,Compound,Ratio Ki
1,Cc1ccc2c(c1)-c1nc(Cc3cc(C)no3)nn1Cc1c(C)ncn1-2,620
2,Cc1cc(Cc2nc3n(n2)Cc2c(C)ncn2-c2ccc(OC(F)(F)F)cc2-3)on1,68
3,COc1ccc2c(c1)-c1nc(Cc3cc(C)no3)nn1Cc1c(C)ncn1-2,307
4,Cc1cc(Cc2nc3n(n2)Cc2c(C)ncn2-c2ccc(Br)cc2-3)on1,314

# System: not listed separately
# Experiment: Selectivity ratio of Ki for GABAA alpha-2-beta-3-gamma-2 receptor to Ki for GABAA alpha-5-beta-3-gamma-2 receptor
# Conditions: not given
row,Compound,Ratio Ki
1,Cc1ccc2c(c1)-c1nc(Cc3cc(C)no3)nn1Cc1c(C)ncn1-2,332
2,Cc1cc(Cc2nc3n(n2)Cc2c(C)ncn2-c2ccc(OC(F)(F)F)cc2-3)on1,83
3,COc1ccc2c(c1)-c1nc(Cc3cc(C)no3)nn1Cc1c(C)ncn1-2,193
4,Cc1cc(Cc2nc3n(n2)Cc2c(C)ncn2-c2ccc(Br)cc2-3)on1,174

# System: not listed separately
# Experiment: Selectivity ratio of Ki for GABAA alpha-3-beta-3-gamma-2 receptor to Ki for GABAA alpha-5-beta-3-gamma-2 receptor
# Conditions: not given
row,Compound,Ratio Ki
1,Cc1ccc2c(c1)-c1nc(Cc3cc(C)no3)nn1Cc1c(C)ncn1-2,360
2,Cc1cc(Cc2nc3n(n2)Cc2c(C)ncn2-c2ccc(OC(F)(F)F)cc2-3)on1,111
3,COc1ccc2c(c1)-c1nc(Cc3cc(C)no3)nn1Cc1c(C)ncn1-2,222
4,Cc1cc(Cc2nc3n(n2)Cc2c(C)ncn2-c2ccc(Br)cc2-3)on1,122

# System: not listed separately
# Experiment: Solubility of the compound
# Format: physicochemical
# Conditions: not given
row,Compound,solubility [µg/mL]
1,Cc1cc(Cc2nc3n(n2)Cc2c(C)ncn2-c2ccc(Br)cc2-3)on1,7

# System: not listed separately
# Experiment: Lipophilicity, log D at pH 7.4
# Format: physicochemical
# Conditions: buffer
row,Compound,logD
1,Cc1cc(Cc2nc3n(n2)Cc2c(C)ncn2-c2ccc(Br)cc2-3)on1,2.6

# System: not listed separately
# Experiment: Permeability by PAMPA
# Format: ADME
# Conditions: read-out: permeability
row,Compound,Papp [×10⁻⁶ cm/s]
1,Cc1cc(Cc2nc3n(n2)Cc2c(C)ncn2-c2ccc(Br)cc2-3)on1,3.3

# System: not listed separately
# Experiment: Half life in rat
# Format: ADME, organism-based
# Conditions: in vivo
row,Compound,half-life [h]
1,Cc1cc(Cc2nc3n(n2)Cc2c(C)ncn2-c2ccc(Br)cc2-3)on1,1.4

# System: not listed separately
# Experiment: Clearance in rat
# Format: ADME, organism-based
# Conditions: in vivo
row,Compound,clearance [mL/min/kg]
1,Cc1cc(Cc2nc3n(n2)Cc2c(C)ncn2-c2ccc(Br)cc2-3)on1,39

# System: not listed separately
# Experiment: Volume of distribution at steady state in rat
# Format: ADME, organism-based
# Conditions: in vivo, read-out: Vdss
row,Compound,Vd [L/kg]
1,Cc1cc(Cc2nc3n(n2)Cc2c(C)ncn2-c2ccc(Br)cc2-3)on1,4.6

# System: not listed separately
# Experiment: Oral bioavailability in rat
# Format: ADME, organism-based
# Conditions: in vivo
row,Compound,bioavailability [%]
1,Cc1cc(Cc2nc3n(n2)Cc2c(C)ncn2-c2ccc(Br)cc2-3)on1,34

# System: not listed separately
# Experiment: Ratio of drug level in brain to plasma in rat
# Format: ADME, organism-based
# Conditions: brain and plasma
row,Compound,Kp
1,Cc1cc(Cc2nc3n(n2)Cc2c(C)ncn2-c2ccc(Br)cc2-3)on1,0.2
